The results in this text go back to US6323001A, “Increasing the trehalose content of organisms by transforming them with combinations of the structural genes for trehalose synthase” (BTG International Ltd., priority 1994, dated 2001).

Where two headings read alike, the source gives them in different places.

Holding throughout (type): biochemical, baker's yeast
The target in experiment [1] is T1, Tre6P synthase activity of truncated trehalose synthase (Saccharomyces cerevisiae, UniProt Q00764).
T1 construct: contained the 57 kDa short chain; made in house; host or cells: baker's yeast (native enzyme, proteolytically truncated during purification)
T1 sequence (Q00764 1-495): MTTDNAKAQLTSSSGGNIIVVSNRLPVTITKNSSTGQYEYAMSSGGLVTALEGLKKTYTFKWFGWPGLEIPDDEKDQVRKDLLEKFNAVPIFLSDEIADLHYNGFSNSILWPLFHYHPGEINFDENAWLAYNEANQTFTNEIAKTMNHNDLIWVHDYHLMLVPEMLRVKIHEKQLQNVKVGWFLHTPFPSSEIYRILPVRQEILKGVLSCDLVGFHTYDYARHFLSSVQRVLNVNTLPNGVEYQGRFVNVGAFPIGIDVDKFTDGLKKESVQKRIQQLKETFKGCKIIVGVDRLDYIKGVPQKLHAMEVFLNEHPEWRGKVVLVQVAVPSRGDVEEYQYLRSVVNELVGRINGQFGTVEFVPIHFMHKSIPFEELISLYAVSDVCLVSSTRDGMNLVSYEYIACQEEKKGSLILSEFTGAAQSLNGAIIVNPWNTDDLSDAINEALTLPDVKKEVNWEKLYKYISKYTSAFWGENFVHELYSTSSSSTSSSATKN
Kind of experiment: Tre6P synthase assay of truncated trehalose synthase. Conditions: 10 mM G6P, 5 mM UDPG, 5 mM F6P, without phosphate = 100%. As for the experimental part: (§1) With microbial materials, Tre6Pase and Tre6P synthase standard assays and other kinetic measurements were made as described by Londesborough & Vuorio [(1991) loc. cit.] except that the standard Tre6P synthase assay mixture contained 5 mM F6P unless stated otherwise.
(§2) Truncated trehalose synthase containing the short (57 kDa) chain and the 86 and 93 kDa long chain fragments was prepared according to the method of Londesborough & Vuorio (1991) loc. cit.] for proteolytically activated TPS/P complex. Tre6P synthase and Tre6Pase activities were assayed as described by Londesborough & Vuorio [(1991) loc. cit.]. [N-ethyl-1-^14C]-maleimide (ethyl-labelled NEM; 40 mCi/mmol) was NEC-454 from New England Nuclear. N-ethyl-[2,3-^14 C]-maleimide (ring-labelled NEM; 6 mCi/mmol) was CFA 293 from Amersham International. Both were obtained as solutions in n-pentane and the manufacturer's stated specific activities were assumed to be correct. Unlabelled N-ethyl-maleimide (NEM) was E-3876 from Sigma. It was dissolved in 25 mM HEPES pH 7.0 immediately before use and standardized by absorption measurements at 305 nm, assuming an E^mM of 0.62.
(§3) Truncated trehalose synthase was prepared as described by Londesborough & Vuorio [(1991) loc. cit.] and contained the 57 kDa short chain and 86 and 93 kDa fragments of the long chain. Intact trehalose synthase was prepared as in Example 1. Kinetic assays were done at 30° C. as described in General Methods and Materials.

Experiment [2] deals with Tre6Pase activity of truncated trehalose synthase (Saccharomyces cerevisiae, UniProt P31688). Kind of experiment: Tre6Pase assay of truncated trehalose synthase. The protocol: as §1, §2
In one experiment, 2.0 μl of 2.4 mM ethyl-labelled NEM was mixed with 150 μl of gel-filtered enzyme and incubated at 23° C. Samples (10 μl) taken at various times up to 190 min were mixed with 60 μl of Laemmli sample buffer (the mercapto-ethanol in this buffer should destroy residual NEM), boiled for 5 min and subjected to SDS-PAGE. At closely similar times (and also at 23 h) other samples (10 μl) were mixed with 100 μl (for Tre6P synthase) or 700 μl (for Tre6Pase) of 5 mg BSA/ml 25 mM HEPES pH 7.0 containing 2 mM MgCl2, 1 mM EDTA, 0.2 M NaCl and 1 mM dithiothreitol (the dithiothreitol should destroy residual NEM) and assayed for Tre6P synthase and Tre6Pase.
as §3

Experiment [3] concerns the target T2, Tre6P synthase activity of intact trehalose synthase (Saccharomyces cerevisiae, UniProt Q00764).
T2 construct: Intact trehalose synthase was purified from commercial baker's yeast; made in house; host or cells: commercial baker's yeast (native enzyme purified, not recombinant)
Kind of experiment: Tre6P synthase assay of intact trehalose synthase. The note with it: for Tre6P synthase activity, Intact Enzyme: 10 mM G6P, 5 mM UDPG, 5 mM F6P, without phosphate = 100%; for EC50: read-out: K1/2 of activation by F6P. As for the experimental part:
as §1
Removal of the N-terminal 325 or so amino acids from the 123 kDa long chain of intact trehalose synthase by treatment with trypsin in vitro produces an enzyme with catalytic properties like those of the truncated enzyme purified by Londesborough & Vuorio [(1991) loc. cit.]. In one experiment intact trehalose synthase (0.28 Tre6P synthase units, ≈9.4 μg) was incubated with or without 0.5 μg of trypsin at 30° C. in 250 μl of 13 mM HEPES pH 7.0 containing 1 mM MgCl2, 0.5 mM EDTA, 0.5 mM dithiothreitol, 0.2 M NaCl and 0.5 mM benzamidine. Its Tre6P synthase activity was determined at intervals using standard assay mixtures (containing 5 mM F6P) containing no or 4 mM K phosphate pH 6.8, and samples were prepared for SDS-PAGE analysis immediately before and 48 min after addition of the trypsin.
as §3

Where [4] appears, read: 1.3 mM added K phosphate pH 6.8.
Where [5] appears, read: 4.0 mM added K phosphate pH 6.8.

Tre6Pase activity of truncated trehalose synthase, sequence (P31688 whole entry, one chain of several, the tested form may be a part): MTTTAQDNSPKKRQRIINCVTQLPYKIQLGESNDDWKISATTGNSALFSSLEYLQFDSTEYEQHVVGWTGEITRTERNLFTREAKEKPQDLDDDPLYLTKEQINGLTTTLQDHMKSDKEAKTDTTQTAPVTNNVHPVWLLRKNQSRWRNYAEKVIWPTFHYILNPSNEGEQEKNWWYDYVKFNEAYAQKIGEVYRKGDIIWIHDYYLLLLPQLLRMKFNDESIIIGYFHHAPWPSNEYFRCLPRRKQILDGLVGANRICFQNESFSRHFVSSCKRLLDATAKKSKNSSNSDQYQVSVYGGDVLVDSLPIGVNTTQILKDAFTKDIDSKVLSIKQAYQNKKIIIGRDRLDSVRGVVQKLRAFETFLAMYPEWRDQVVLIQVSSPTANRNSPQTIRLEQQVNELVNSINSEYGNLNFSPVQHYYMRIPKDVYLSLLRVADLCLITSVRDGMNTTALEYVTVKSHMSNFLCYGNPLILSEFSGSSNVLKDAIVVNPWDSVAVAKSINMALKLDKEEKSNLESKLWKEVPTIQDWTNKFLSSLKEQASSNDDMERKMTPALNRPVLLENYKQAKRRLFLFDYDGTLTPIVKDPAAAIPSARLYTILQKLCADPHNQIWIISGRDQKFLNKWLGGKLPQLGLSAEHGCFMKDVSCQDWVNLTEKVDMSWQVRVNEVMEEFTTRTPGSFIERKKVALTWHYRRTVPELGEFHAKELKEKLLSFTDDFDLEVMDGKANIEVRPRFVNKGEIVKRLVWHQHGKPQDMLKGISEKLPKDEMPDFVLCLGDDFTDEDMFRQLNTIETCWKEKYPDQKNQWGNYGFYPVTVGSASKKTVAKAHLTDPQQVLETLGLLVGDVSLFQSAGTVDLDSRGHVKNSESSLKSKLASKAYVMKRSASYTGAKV
Tre6Pase activity of truncated trehalose synthase, sequence (P38427 336-1098, one chain of several, further chain): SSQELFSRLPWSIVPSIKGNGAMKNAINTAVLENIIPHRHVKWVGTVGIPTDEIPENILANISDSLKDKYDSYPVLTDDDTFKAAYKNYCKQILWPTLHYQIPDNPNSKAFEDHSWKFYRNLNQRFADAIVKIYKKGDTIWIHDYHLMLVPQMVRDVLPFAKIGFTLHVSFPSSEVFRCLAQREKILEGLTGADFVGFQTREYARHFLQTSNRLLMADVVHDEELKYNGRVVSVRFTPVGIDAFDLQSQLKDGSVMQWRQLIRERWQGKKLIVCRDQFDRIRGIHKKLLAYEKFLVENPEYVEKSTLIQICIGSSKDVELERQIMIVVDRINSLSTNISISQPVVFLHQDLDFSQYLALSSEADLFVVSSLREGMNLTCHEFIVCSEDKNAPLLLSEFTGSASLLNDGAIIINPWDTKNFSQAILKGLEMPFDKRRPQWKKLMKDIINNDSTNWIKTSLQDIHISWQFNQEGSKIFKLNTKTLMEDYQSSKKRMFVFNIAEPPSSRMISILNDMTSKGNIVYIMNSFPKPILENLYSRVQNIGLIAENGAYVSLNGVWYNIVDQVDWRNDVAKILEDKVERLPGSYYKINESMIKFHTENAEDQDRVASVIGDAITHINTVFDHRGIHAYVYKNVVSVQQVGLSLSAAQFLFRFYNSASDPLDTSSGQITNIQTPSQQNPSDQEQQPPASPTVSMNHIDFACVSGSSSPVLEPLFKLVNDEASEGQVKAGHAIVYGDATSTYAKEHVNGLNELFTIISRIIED
T2 sequence (P31688 whole entry, one chain of several): as the sequence (P31688 whole entry, one chain of several, the tested form may be a part) above
T2 sequence (P38427 whole entry, one chain of several, further chain): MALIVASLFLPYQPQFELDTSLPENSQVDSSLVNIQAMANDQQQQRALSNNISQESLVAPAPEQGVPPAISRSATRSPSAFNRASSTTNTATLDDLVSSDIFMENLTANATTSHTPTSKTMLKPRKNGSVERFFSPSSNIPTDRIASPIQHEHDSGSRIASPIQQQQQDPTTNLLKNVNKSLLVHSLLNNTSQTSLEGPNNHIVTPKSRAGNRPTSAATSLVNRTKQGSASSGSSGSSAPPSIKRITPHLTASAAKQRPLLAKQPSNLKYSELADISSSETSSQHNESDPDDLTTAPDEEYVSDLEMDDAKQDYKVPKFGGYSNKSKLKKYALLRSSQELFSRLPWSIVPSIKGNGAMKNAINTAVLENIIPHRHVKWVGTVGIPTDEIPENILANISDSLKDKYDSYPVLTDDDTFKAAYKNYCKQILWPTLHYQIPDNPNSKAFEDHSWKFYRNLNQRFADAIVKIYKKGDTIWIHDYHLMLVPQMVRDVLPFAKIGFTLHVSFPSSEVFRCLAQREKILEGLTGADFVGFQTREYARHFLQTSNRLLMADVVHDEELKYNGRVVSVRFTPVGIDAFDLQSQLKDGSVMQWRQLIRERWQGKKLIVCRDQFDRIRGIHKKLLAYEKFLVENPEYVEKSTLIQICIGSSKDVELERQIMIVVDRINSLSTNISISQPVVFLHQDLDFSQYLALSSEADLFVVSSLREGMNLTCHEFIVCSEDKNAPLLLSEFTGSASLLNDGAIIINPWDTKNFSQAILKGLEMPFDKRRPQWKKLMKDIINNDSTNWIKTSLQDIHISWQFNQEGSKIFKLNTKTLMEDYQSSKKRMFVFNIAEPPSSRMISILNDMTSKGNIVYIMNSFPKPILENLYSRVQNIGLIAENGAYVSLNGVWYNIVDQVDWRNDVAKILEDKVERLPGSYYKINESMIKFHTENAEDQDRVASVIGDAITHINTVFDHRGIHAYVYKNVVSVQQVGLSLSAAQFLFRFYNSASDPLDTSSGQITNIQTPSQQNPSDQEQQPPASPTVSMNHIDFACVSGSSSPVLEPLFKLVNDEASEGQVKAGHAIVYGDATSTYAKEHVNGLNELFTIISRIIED

Consider `O=P(O)(O)O` [phosphate, K phosphate], for which the “Tre6P synthase activity, Truncated Enzyme” value in experiment [1] (setting [4]) was 94%; in experiment [1] (setting [5]) it was 83%. In addition, the EC50 in experiment [2] (initial rates, truncated enzyme, read-out: K1/2 of activation of Tre6Pase by phosphate) was 3000 µM. Moreover, the “Tre6P synthase activity, Intact Enzyme” value is given as 69% in experiment [3] (setting [4]) and 14% in experiment [3] (setting [5]).
Take `O=C(CO)[C@@H](O)[C@H](O)[C@H](O)COP(=O)(O)O` [Transformant F6P, Fructose 6-phosphate]: the inhibition at 5000 µM in experiment [2] (read-out: inhibition of Tre6Pase activity, 5 mM F6P, saturating phosphate concentrations, truncated enzyme) lay within 10 to 15%; in experiment [2] (read-out: inhibition of Tre6Pase activity, 5 mM F6P, sub-optimal phosphate concentrations, truncated enzyme) it was 20 to 30%. The EC50 turned out to be 1400 µM in experiment [3] (1.3 mM phosphate) and 60 µM in experiment [3] (no added phosphate).
